Reference: patent US9750449B2, “Method of assessing skin” (Johnson & Johnson Consumer Inc., priority 2003, dated 2017)

Tests used:
[1] = system: facial skin; assay: Visual observation of the appearance of wrinkles in treated areas; assay type: in vivo, human; conditions: cream with 0.15% retinol applied daily, vehicle cream alone had no effect
[2] = system: facial skin; assay: In vivo facial skin fluorescence after daily topical retinol cream versus vehicle; set-up: species or system human; conditions: cheek
Description: In vivo fluorescence spectroscopy can be performed for example using a fiber optic probe attached to a spectrofluorimeter (e.g. the model SkinSkan (J Y Horiba, Edison, N.J.)). The method requires: a) a UV radiation source (e.g., a Xenon arc lamp or a mercury lamp), b) a method of selecting the radiation wavelength (e.g. a monochromator, a prism, or a grating), c) a method of delivery of the radiation to the tissue (e.g. a fiber bundle), d) a method of collection of the emitted radiation from the tissue (e.g. a fiber bundle), e) a method of selecting the emitted radiation wavelength (e.g. a monochromator, a prism, or a grating), and f) a method of detecting the emitted radiation (e.g. a photomultiplier, a single photodiode, a photodiode array, or a CCD array). See, e.g., Stamatas G N, et al., J Invest Dermatol 118(2):295-302, 2002.
Measurements were preformed by placing the fiber optic probe in contact with the skin site of interest. Before each set of measurements, the instrument was spectrally calibrated for excitation and emission in the region 250-650 nm. […]
Acquisition of excitation spectra was the preferred method of measuring in vivo skin fluorescence. […]
In order to account for variations in skin native pigmentation that attenuates the detected fluorescence signal, fluorescence intensity was normalized with the diffuse reflectance signal of the same skin site at the corresponding wavelength. […] The measured fluorescence in this wavelength region arises from the dermis (Gillies et al, 2000, Kollias et al, 1998), which means that excitation light has to travel through the whole epidermis where it is attenuated by epidermal melanin and proteins, both of which absorb strongly in the UV. […] Furthermore, the intensity of the light source is low below 300 nm and normalization of the fluorescence by the diffuse reflectance signal in this wavelength range amplified the noise. […] To overcome this problem, the tryptophan fluorescence signal may be normalized to another fluorescence band, rather than to the diffuse reflectance value at 295 nm. […]

CC1=C(/C=C/C(C)=C/C=C/C(C)=C/CO)C(C)(C)CCC1 [retinol]
appearance of wrinkles (visual observations) [1]: reduction in the appearance of wrinkles
rate of decrease in the 295 nm band fluorescence ([2]; cream with 0.15% retinol and SPF 15 sunscreen applied daily, measured at baseline, 3 and 6 months, placebo −0.04 units/month): −0.01 units/month
change of the 390 nm band fluorescence over the period of the study ([2]; cream with 0.15% retinol applied daily, 6 months): did not significantly change
normalized tryptophan fluorescence values (I295nm/I390nm) over time ([2]; cream with 0.15% retinol applied daily, 6 months, p<0.05 versus vehicle (−0.062±0.029 ratio units per month)): remained virtually constant
